From patent US20250154169A1, “COMPOUNDS AND METHODS FOR MODULATING SPLICING” (REMIX THERAPEUTICS INC., priority 2021, published 2025)
pIC50: −log10 of the molar value. Read-outs that look alike come from different tables or passages of the source.

Key:
Format in all cases: cell-based, human
HTT mRNA [1] = assay: Splicing RT-qPCR assay, HTT canonical (CJ) and alternative (AJ) junction mRNA; conditions: Table 3B; for AC50: alternative junction mRNA, read-out: HTT AJ (AC50, increase in AJ mRNA); for pIC50: canonical junction mRNA, read-out: HTT CJ (IC50, decrease in CJ mRNA)
Method in brief: (§1)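 Read-out is the abundance of canonical-junction versus new alternative-exon-junction mRNA, determined by real-time qPCR after cDNA synthesis and normalized to a housekeeping gene. It is measured in A673 or K562 cells exposed to compounds for 24 h, top dose 10 uM.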

MYB mRNA = assay: Splicing RT-qPCR assay, MYB canonical (CJ) and alternative (AJ) junction mRNA; conditions: for AC50: alternative junction mRNA, read-out: MYB AJ (AC50, increase in AJ mRNA)
Method in brief: as §1

SMN2 mRNA = assay: Splicing RT-qPCR gene panel, SMN2 canonical junction (CJ) mRNA; conditions: Tables 4A/4B, read-out: SMN2 (IC50, decrease in CJ mRNA, gene panel)
Method in brief: (§2)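 First, A673 cells adhered 24 h before dosing, while K562 cells were plated and dosed directly. Both lines were then exposed to compound for 24 h at 37 °C, 5% CO2, top concentration 10 uM. Finally, lysates underwent RT-qPCR of the canonical junction, with ΔΔCt-based relative quantification.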

Target C mRNA = assay: Splicing RT-qPCR gene panel, Target C canonical junction (CJ) mRNA; conditions: Tables 4A/4B, read-out: Target C (IC50, decrease in CJ mRNA, gene panel)
Method in brief: as §2

HTT mRNA [2] = assay: Splicing RT-qPCR gene panel, HTT canonical junction (CJ) mRNA; conditions: Tables 4A/4B, read-out: HTT (IC50, decrease in CJ mRNA, gene panel)
Method in brief: as §2

[3] = Homo sapiens, Table 3B, canonical junction mRNA, RT-qPCR, read-out: MYB CJ (IC50, decrease in CJ mRNA)
[4] = Homo sapiens, Tables 4A/4B, canonical junction qPCR panel, read-out: MYB (IC50, decrease in CJ mRNA, gene panel)
[5] = Homo sapiens, Table 3B, RT-qPCR

SMILES | AC50 (HTT mRNA [1]) [µM] | pIC50 (HTT mRNA [1]) | AC50 (MYB mRNA; Table 3B, RT-qPCR) [µM] | pIC50 (MYB mRNA; Table 3B, canonical junction mRNA, RT-qPCR, read-out: MYB CJ (IC50, decrease in CJ mRNA)) | pIC50 (MYB mRNA; Tables 4A/4B, canonical junction qPCR panel, read-out: MYB (IC50, decrease in CJ mRNA, gene panel)) | pIC50 (SMN2 mRNA) | pIC50 (Target C mRNA) | pIC50 (HTT mRNA [2]) | AC50 (HTT mRNA [1]; Homo sapiens) [µM] | pIC50 (HTT mRNA [1]; Homo sapiens) | pIC50 (MYB mRNA; [3]) | pIC50 (MYB mRNA; [4]) | AC50 (MYB mRNA; [5]) [µM] | pIC50 (SMN2 mRNA; Homo sapiens) | pIC50 (Target C mRNA; Homo sapiens) | pIC50 (HTT mRNA [2]; Homo sapiens)
CCc1cc2c(N3CCNCC3)ccc(C(=O)Nc3cc(F)c4nc(C)cn4c3)n2n1 [Compound 916] | 0.1 to 1 | 6.00 to 7.00 | < 0.1 | > 7.00 | > 7.00 | > 7.00 | 6.00 to 7.00 | 6.00 to 7.00 |  |  |  |  |  |  |  | 
Cc1cn2cc(NC(=O)c3ncc(N4CCNCC4)c4cn(C)nc34)cc(F)c2n1 [Compound 932] |  |  |  |  |  |  |  |  | > 10 | < 5.00 | 5.00 to 6.00 | 5.00 to 6.00 | 1 to 10 | 6.00 to 7.00 | < 5.00 | < 5.00
Cc1cn2cc(NC(=O)c3ccc(N4CCNCC4)c4cc(C)nn34)cc(F)c2n1 [Compound 940] |  |  |  |  |  |  |  |  | 0.1 to 1 | > 7.00 | > 7.00 | > 7.00 | < 0.1 | > 7.00 | 6.00 to 7.00 | > 7.00
Cc1cn2cc(NC(=O)c3ccc(N4CCNCC4)c4csnc34)cc(F)c2n1 [Compound 941] |  |  |  |  |  |  |  |  | 0.1 to 1 | 6.00 to 7.00 | > 7.00 | > 7.00 | < 0.1 | > 7.00 | 5.00 to 6.00 | 6.00 to 7.00
CCNC1CCN(c2ccc(C(=O)Nc3cc(F)c4nc(C)cn4c3)c3nc(CC)cn23)C1 (stereo not drawn) [Compound 942] |  |  |  |  |  |  |  |  | 1 to 10 | 6.00 to 7.00 | 6.00 to 7.00 | 6.00 to 7.00 | 0.1 to 1 | > 7.00 | 5.00 to 6.00 | 6.00 to 7.00
CCc1cn2c(N3CCNCC3)ccc(C(=O)Nc3cc(F)c4nc(C)cn4c3)c2n1 [Compound 943] |  |  |  |  |  |  |  |  | 1 to 10 | 6.00 to 7.00 | > 7.00 | > 7.00 | < 0.1 | > 7.00 | 5.00 to 6.00 | 6.00 to 7.00
CCNC1CCN(c2ccc(C(=O)Nc3cc(F)c4nc(C)cn4c3)c3nc(CC)sc23)C1 (stereo not drawn) [Compound 944] |  |  |  |  |  |  |  |  | 1 to 10 | 5.00 to 6.00 | 6.00 to 7.00 | 6.00 to 7.00 | 0.1 to 1 | > 7.00 | 5.00 to 6.00 | 5.00 to 6.00
CCc1nc2c(C(=O)Nc3cc(F)c4nc(C)cn4c3)ccc(N3CCNCC3)c2s1 [Compound 945] |  |  |  |  |  |  |  |  | 1 to 10 | 5.00 to 6.00 | > 7.00 | > 7.00 | < 0.1 | > 7.00 | 5.00 to 6.00 | 5.00 to 6.00
Cc1cn2cc(NC(=O)c3ccc(N4CCNCC4)c4nc(C)nn34)cc(F)c2n1 [Compound 946] |  |  |  |  |  |  |  |  | 0.1 to 1 | > 7.00 | > 7.00 | > 7.00 | < 0.1 | > 7.00 | 6.00 to 7.00 | > 7.00
COc1c(NC(=O)c2ccc(N3CCNCC3)c3nc(C)nn23)cn2cc(C)nc2c1F [Compound 949] |  |  |  |  |  |  |  |  | < 0.1 | > 7.00 | > 7.00 | > 7.00 | < 0.1 | > 7.00 | > 7.00 | > 7.00
CCn1cc2c(N3CCNCC3)ncc(C(=O)Nc3cc(F)c4nc(C)cn4c3)c2n1 [Compound 950] |  |  |  |  |  |  |  |  | 0.1 to 1 | 6.00 to 7.00 | > 7.00 | > 7.00 | 0.1 to 1 | > 7.00 | < 5.00 | 6.00 to 7.00
CCn1cc2c(N3C[C@@H](C)N[C@@H](C)C3)ncc(C(=O)Nc3cc(F)c4nc(C)cn4c3)c2n1 [Compound 952] |  |  |  |  |  |  |  |  | 0.1 to 1 | 6.00 to 7.00 | 6.00 to 7.00 | 6.00 to 7.00 | 0.1 to 1 | > 7.00 | 6.00 to 7.00 | 6.00 to 7.00
CCn1cc2c(N3CCC(NC)C3)ncc(C(=O)Nc3cc(F)c4nc(C)cn4c3)c2n1 (stereo not drawn) [Compound 953] |  |  |  |  |  |  |  |  | 1 to 10 | 5.00 to 6.00 | 6.00 to 7.00 | 6.00 to 7.00 | 0.1 to 1 | > 7.00 | 5.00 to 6.00 | 5.00 to 6.00
CCn1cc2c(N3CCN(C)CC3)ncc(C(=O)Nc3cc(F)c4nc(C)cn4c3)c2n1 [Compound 954] |  |  |  |  |  |  |  |  | 1 to 10 | 5.00 to 6.00 | 6.00 to 7.00 | 6.00 to 7.00 | 0.1 to 1 | > 7.00 | 5.00 to 6.00 | 5.00 to 6.00
Cc1cn2cc(NC(=O)c3ccc(N4CCNCC4)c4cc(CO)nn34)cc(F)c2n1 [Compound 955] |  |  |  |  |  |  |  |  | 1 to 10 | 6.00 to 7.00 | > 7.00 | > 7.00 | < 0.1 | > 7.00 | < 5.00 | 6.00 to 7.00
CCNC1CCN(c2ccc(C(=O)Nc3cc(F)c4nc(C)cn4c3)n3nc(CO)cc23)C1 (stereo not drawn) [Compound 956] |  |  |  |  |  |  |  |  | 0.1 to 1 | > 7.00 | > 7.00 | > 7.00 | < 0.1 | > 7.00 | 6.00 to 7.00 | > 7.00
Cc1cn2cc(NC(=O)c3ccc(N4CC[C@@H](NC5CC5)C4)c4nc(C)nn34)cc(F)c2n1 [Compound 958] |  |  |  |  |  |  |  |  | 1 to 10 | 6.00 to 7.00 | > 7.00 | > 7.00 | < 0.1 | > 7.00 | < 5.00 | 6.00 to 7.00
CCNC1CCN(c2ccc(C(=O)Nc3cc(F)c4nc(C)cn4c3)n3nc(CC)cc23)C1 (stereo not drawn) [Compound 959] |  |  |  |  |  |  |  |  | 0.1 to 1 | 6.00 to 7.00 | > 7.00 | > 7.00 | < 0.1 | > 7.00 | 6.00 to 7.00 | 6.00 to 7.00
CCc1cc2c(N3CCNCC3)ccc(C(=O)Nc3cc(F)c4nc(C)cn4c3)n2n1 [Compound 960] |  |  |  |  |  |  |  |  | 0.1 to 1 | 6.00 to 7.00 | 6.00 to 7.00 | 6.00 to 7.00 | 0.1 to 1 | > 7.00 | 6.00 to 7.00 | 6.00 to 7.00
CCNC1CCN(c2ccc(C(=O)Nc3cc(F)c4nc(C)cn4c3)n3nc(C(C)O)cc23)C1 (stereo not drawn) [Compound 961] |  |  |  |  |  |  |  |  | 0.1 to 1 | 6.00 to 7.00 | > 7.00 | > 7.00 | < 0.1 | > 7.00 | 6.00 to 7.00 | 6.00 to 7.00
Cc1cn2cc(NC(=O)c3ccc(N4CC[C@@H](NC5CC5)C4)c4cc(C)nn34)cc(F)c2n1 [Compound 963] |  |  |  |  |  |  |  |  | 1 to 10 | 5.00 to 6.00 | 6.00 to 7.00 | 6.00 to 7.00 | 0.1 to 1 | > 7.00 | < 5.00 | 5.00 to 6.00
Cc1cn2cc(NC(=O)c3ccc(N4CC[C@@H](NC5CC5)C4)n4cc(C)nc34)cc(F)c2n1 [Compound 965] |  |  |  |  |  |  |  |  | < 0.1 | > 7.00 | > 7.00 | > 7.00 | < 0.1 | > 7.00 | 6.00 to 7.00 | > 7.00
Cc1cn2cc(NC(=O)c3cnc(N4CCC(NC5CC5)C4)c4cn(C)nc34)cc(F)c2n1 (stereo not drawn) [Compound 966] |  |  |  |  |  |  |  |  | < 0.1 | > 7.00 | > 7.00 | > 7.00 | < 0.1 | > 7.00 | > 7.00 | > 7.00
COc1c(NC(=O)c2ccc(N3CC[C@@H](NC4CC4)C3)c3nc(C)nn23)cn2cc(C)nc2c1F [Compound 968] |  |  |  |  |  |  |  |  | 1 to 10 | 6.00 to 7.00 | > 7.00 | > 7.00 | 0.1 to 1 | > 7.00 | 5.00 to 6.00 | 6.00 to 7.00
